According to patent US20140322348A1 (priority 2011, published 2014):

Experiments:
grapevine downy mildew = experiment: Vineyard trial against grapevine downy mildew, foliar sprays; conditions: seven days after third application, rates TG 0.3%, potassium phosphite 0.4%, Liquid Copper 0.25%; for % infected leaf area: grape "Superior"
Description: The Timorex Gold or synthetic fungicidal composition were diluted prior to use. At the outset, pre-harvest plants were moderately infected with downy mildew. The crops studied were drip irrigated and fertilized according to known recommendations. Treatments were applied in a randomized complete block, with 4 replications per treatment. Plot size in each instance was 8 m length. Fungicidal treatment was applied using backpack sprayer equipped with a mist blower (STHIL 340 with endpiece 3) to spray a volume of 100 liter/dunam (1000 liter/ha) Foliar sprays were applied on days 1, 10 and 17. The plants were inspected on day 1 (prior to spraying) and days 11, 18 and 24. At the beginning of the experiment, for each group, 5 plant extremities having single leafs were marked. The percent of coverage of downy mildew on a five square cm area was estimated before marking in order to estimate the efficacy in curing infection and after marking to estimate the efficacy in preventing infection. To analyze the results, an arc-sin transformation was performed on the raw data, and analysis of variance (ANOVA) using the SAS GLM procedure was applied to the transformed data. The Tukey-Kramer Test was applied to determine whether differences between treatments were significant.

cucumber downy mildew = experiment: Greenhouse trial against cucumber downy mildew, foliar sprays; conditions: rates TG 0.5%, potassium phosphite 0.4%
Description: Combinations of TTO (supplied as Timorex Gold®, 23.8% TTO) and a synthetic fungicidal composition (supplied Canon® 50 from Luxembourg Industries Ltd., Israel, containing 780 g potassium phosphite (equivalent to 500 g phosphorous acid) per liter) were tested against cucumber downy mildew. Greenhouse-grown plants were drip irrigated and fertilized according to known recommendations for this crop. Treatments were applied in a randomized complete block, with 5 replications per treatment. Plot size in each instance was of 7 m length, containing 14 plants. The TTO or potassium phosphite composition were diluted prior to use. Fungicidal treatment was applied using backpack sprayer equipped with a mist blower (STHIL 340) to spray a at a rate of 350 cc/dunam. Three foliar sprays were applied at 11-13 day intervals. Disease severity was evaluated by determining the leaf area covered with downy mildew (disease severity) on each of 20 leaves randomly selected per each replicate. […] To analyze the results, an arc-sin transformation was performed on the raw data, and analysis of variance (ANOVA) using the SAS GLM procedure was applied to the transformed data. The Tukey-Kramer Test was applied to determine whether differences between treatments were significant.

Substance: potassium phosphite
- % infected leaf area (grapevine downy mildew; Curative): 28.25%
- Efficacy (%) (grapevine downy mildew; Curative): 25.2%
- % infected leaf area (grapevine downy mildew; Protectant): 14%
- Efficacy (%) (grapevine downy mildew; Protectant): 62.9%
- Severity % infected leaf area (cucumber downy mildew; 11 days after third application): 1.4%
- Efficacy (%) (cucumber downy mildew; Incidence, seven days after third application): 74.4%
- Incidence % leaves infected (cucumber downy mildew; Seven days after third application): 23.7%
- Efficacy (%) (cucumber downy mildew; Severity, 11 days after third application): 92.1%
